Measured values: patent US20090042790A1, “TRANSMUCOSAL DELIVERY OF PEPTIDE DERIVATIVES” (NASTECH PHARMACEUTICAL COMPANY INC., priority 2005, published 2009)
*1 amine or outer side, *2 acyl side, *3 side chain or, on linkers, in order; H or OH if unused. Where a SMILES comes first, the peptide text is derived from it. Bridges are numbered along the chain shown (N, C = ends). [ ]: non-standard residue; d: D form. The star is where a group is joined. X1 = COc1ccc(C2CCC(N[*:1])(C(=O)[*:2])CC2)cc1; Pentanoyl = CCCCC(=O)*

Legend:
[1] = test system: male DOI mice (obesity mouse model system); assay: Cumulative food intake in male DOI mice; assay type: in vivo; conditions: high dose group (doses 1.25, 2.5, 5 mg/kg); 16 and 24 hours after dose administration; vs 30% PEG control; FIG. 3
Method: The effect of the low molecular weight PEGylated MC4-RA and unmodified MC4-RA on food intake was evaluated under regular light cycle in male DOI mice (obesity mouse model system). Control mice were administered a 30% PEG formulation. For the unmodified MC4-RA in vivo study, individual subjects categorized into three separate study groups, based on dosage levels, were administered 1.25 mg/kg, 2.5 mg/kg or 5 mg/kg of unmodified MC4-RA. For the 2 kDa PEGylated MC4-RA in vivo study, individual subjects categorized into three separate study groups, again based on dosage levels, were administered 5 mg/kg, 10 mg/kg and 20 mg/kg 2 kDa PEGylated MC4-RA. The effective does is higher for the PEGylated MC4-RA due to the tripled molecular weight resulting from the conjugation of a 2 kDa PEG to the MC4-RA molecule.

[2] = molecular target: T1, melanocortin-1 (MC1 receptor) (Homo sapiens, UniProt Q01726); assay: cAMP assay in HEK293 cells expressing the MC1 receptor; assay type: cell-based; conditions: 1×10^−11 to 1×10^−5 M, FIG. 2, read-out: effective concentration to reach a 50% response level (EC50), cAMP production
T1 construct: expressed in transfected cells; host or cells: HEK293
Method: FIG. 2: The degree of MC4 receptor specificity of the 2 kDa PEGylated MC4-RA and the unmodified MC4-RA was compared. The ability to stimulate cAMP production in cells in vitro was assayed; HEK293 cells expressed the melanocortin-1 (MC1 receptor). A measured increase in cAMP levels indicated a lack of MC4 receptor specificity. The 2 kDa PEGylated and unmodified MC4-RA were incubated in a concentration range of approximately 1×10^−11 to 1×10^−5 M with HEK293 cells that were expressing the MC1 receptor. The maximum quantity of cAMP was normalized to 100% or “% Max Response” and the concentration of 2 kDA PEGylated or unmodified MC4-RA was shown as the log of the Molar concentration. The effective concentration to achieve a 50% response (EC50) is shown.
The degree of MC4 receptor specificity of the 2 kDa PEGylated MC4-RA and the unmodified MC4-RA was compared. […] In this instance, a measured increase in cAMP levels would indicate a lack of MC4 receptor specificity. […] The experiment was performed in triplicate and cAMP levels were measured with the cAMP Tropix assay kit. The maximum quantity of cAMP was normalized to 100% or “% Max Response” and the concentration of 2 kDa PEGylated or unmodified MC4-RA is shown as the log of the Molar concentration.

[3] = molecular target: T2, melanocortin-4 cell receptor (MC4 receptor) (Homo sapiens, UniProt P32245); assay: cAMP assay in HEK293 cells expressing the MC4 receptor; assay type: cell-based; conditions: 1×10^−11 to 1×10^−5 M, FIG. 1, read-out: effective concentration to reach a 50% response level (EC50), cAMP production
T2 construct: expressed in transfected cells; host or cells: HEK293
Method: FIG. 1: The ability of the 2 kDa PEGylated MC4-RA and unmodified MC-4RA to stimulate cAMP production in cells expressing the melanocortin-4 cell receptor (MC4 receptor) was compared. HEK293 cells expressing the MC4 receptor were incubated with either the 2 kDa PEGylated MC4-RA or the unmodified MC4-RA. The concentrations used for either MC4-RA in the cAMP assay ranged from approximately 1×10^−11 to 1×10^−5 M. The maximum quantity of cAMP was normalized to 100% or “% Max Response” and the concentration of 2 kDA PEGylated or unmodified MC4-RA was shown as the log of the Molar concentration. The effective concentration to achieve a 50% response (EC50) is shown.
An ideal property of any therapeutic agent is target specificity as induction, for example, of unwanted cell surface receptors and/or cell signaling pathways may lead to deleterious outcomes in the patient subject. […]
Potency was measured as the ability of the 2 kDa PEGylated MC4-RA or the unmodified MC4-RA to stimulate cAMP production in cells expressing the melanocortin-4 cell receptor (MC4 receptor). […] The experiment was performed in triplicate and cAMP levels were measured with the cAMP Tropix assay kit. The maximum quantity of cAMP was normalized to 100% or “% Max Response” and the concentration of 2 kDa PEGylated or unmodified MC4-RA is shown as the log of the Molar concentration.

[4] = test system: EpiAirway™ epithelial cell monolayer; assay: Transepithelial electrical resistance (TEER) of EpiAirway epithelial cell monolayer; assay type: cell-based; conditions: positive TEER control
Method: The epithelial cells are grown on porous membrane-bottomed cell culture inserts at an air-liquid interface, which results in differentiation of the cells to a highly polarized morphology. The apical surface is ciliated with a microvillous ultrastructure and the epithelium produces mucus (the presence of mucin has been confirmed by immunoblotting). The inserts have a diameter of 0.875 cm, providing a surface area of 0.6 cm^2. The cells are plated onto the inserts at the factory approximately three weeks before shipping. One “kit” consists of 24 units.
These junctions confer a transepithelial resistance of several hundred ohms×cm^2 in excised airway tissues.

T2 sequence (P32245 whole entry): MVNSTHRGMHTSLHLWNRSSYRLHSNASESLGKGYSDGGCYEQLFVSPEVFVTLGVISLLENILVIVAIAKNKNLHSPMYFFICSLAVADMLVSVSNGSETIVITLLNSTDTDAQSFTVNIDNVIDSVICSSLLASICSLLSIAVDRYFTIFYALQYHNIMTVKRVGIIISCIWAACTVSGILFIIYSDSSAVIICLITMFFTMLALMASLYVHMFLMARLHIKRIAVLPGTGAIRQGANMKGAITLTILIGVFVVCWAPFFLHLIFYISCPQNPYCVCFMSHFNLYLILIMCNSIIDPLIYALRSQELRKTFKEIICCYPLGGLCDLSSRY
T1 sequence (Q01726 whole entry): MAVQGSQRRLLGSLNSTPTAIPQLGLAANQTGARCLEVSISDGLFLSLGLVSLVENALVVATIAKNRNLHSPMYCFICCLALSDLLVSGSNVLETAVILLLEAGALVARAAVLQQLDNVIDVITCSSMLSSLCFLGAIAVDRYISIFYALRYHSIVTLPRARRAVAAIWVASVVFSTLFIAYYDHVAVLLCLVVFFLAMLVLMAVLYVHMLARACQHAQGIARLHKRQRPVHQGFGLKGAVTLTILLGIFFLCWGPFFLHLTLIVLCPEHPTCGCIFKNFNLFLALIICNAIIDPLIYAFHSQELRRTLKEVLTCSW

CCCCC(=O)N[C@H]1CCC(=O)NCCCC[C@@H](C(N)=O)NC(=O)[C@H](Cc2c[nH]c3ccccc23)NC(=O)[C@H](CCCNC(=N)N)NC(=O)[C@@H](Cc2ccccc2)NC(=O)C2(CCC(c3ccc(OC)cc3)CC2)NC1=O (some centres unmarked) [unmodified MC4-RA] (Pentanoyl-E[X1][dF]RWK-NH2; lactam 1-6)
cumulative food intake [1]: significant reduction on cumulative food intake | EC50 [2]: ~800 nM | EC50 [3]: 0.5 nM

octylphenolpoly(ethyleneglycolether) [Triton X-100 ™]
Average TEER Measurement ([4]; Table 3 formulation #11: 9% Triton X-100 only): 1.5 | Average TEER Measurement ([4]; Table 5 formulation #17: 9% Triton X-100 only): 1.2
